In patent US7858635B2 (priority 2005, dated 2010):
Where two headings read alike, the source gives them in different places.

Columns and labels:
M4 muscarinic receptor = target: T1, M4 muscarinic receptor (Homo sapiens, UniProt P08173); assay: Functional mobilization of intracellular calcium (FLIPR, Fluo-3), M4-CHO cells; format: cell-based; conditions: for Emax: 100% efficacy is the maximum response obtained with the Carbachol control, read-out: M4 Efficacy
T1 construct: expressed in transfected cells; host or cells: CHO cells (M4-CHO, under puromycin, zeocin and blasticidin selection)
T1 sequence (P08173 1-479): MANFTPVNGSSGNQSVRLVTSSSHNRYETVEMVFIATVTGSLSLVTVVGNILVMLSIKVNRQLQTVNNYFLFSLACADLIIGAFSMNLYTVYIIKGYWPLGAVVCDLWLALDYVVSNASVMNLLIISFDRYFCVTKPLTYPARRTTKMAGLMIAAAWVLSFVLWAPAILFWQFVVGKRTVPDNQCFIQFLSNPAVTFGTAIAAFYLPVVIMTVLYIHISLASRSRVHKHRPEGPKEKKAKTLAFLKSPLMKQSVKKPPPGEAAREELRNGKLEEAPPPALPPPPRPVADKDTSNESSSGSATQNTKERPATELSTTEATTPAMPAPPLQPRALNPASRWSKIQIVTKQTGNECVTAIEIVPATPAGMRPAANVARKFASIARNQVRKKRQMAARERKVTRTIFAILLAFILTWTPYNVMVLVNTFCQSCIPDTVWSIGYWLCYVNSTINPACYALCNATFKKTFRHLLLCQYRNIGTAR
Method in brief: (§1)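 Intracellular calcium was tracked by fluorescence (488/540 nm) over 60 sec after compound addition to dye-loaded CHO cells expressing the receptor. Inhibitory activity used a 15 min pre-incubation before carbachol at the subtype EC80.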

M1 muscarinic receptor = target: T2, M1 muscarinic receptor (Homo sapiens, UniProt P11229); assay: Functional mobilization of intracellular calcium (FLIPR, Fluo-3), M1-CHO cells; format: cell-based; conditions: for Emax: 100% efficacy is the maximum response obtained with the Carbachol control, read-out: M1 Efficacy
T2 construct: expressed in transfected cells; host or cells: CHO cells (M1-CHO, under zeocin and G418 selection)
T2 sequence (P11229 1-460): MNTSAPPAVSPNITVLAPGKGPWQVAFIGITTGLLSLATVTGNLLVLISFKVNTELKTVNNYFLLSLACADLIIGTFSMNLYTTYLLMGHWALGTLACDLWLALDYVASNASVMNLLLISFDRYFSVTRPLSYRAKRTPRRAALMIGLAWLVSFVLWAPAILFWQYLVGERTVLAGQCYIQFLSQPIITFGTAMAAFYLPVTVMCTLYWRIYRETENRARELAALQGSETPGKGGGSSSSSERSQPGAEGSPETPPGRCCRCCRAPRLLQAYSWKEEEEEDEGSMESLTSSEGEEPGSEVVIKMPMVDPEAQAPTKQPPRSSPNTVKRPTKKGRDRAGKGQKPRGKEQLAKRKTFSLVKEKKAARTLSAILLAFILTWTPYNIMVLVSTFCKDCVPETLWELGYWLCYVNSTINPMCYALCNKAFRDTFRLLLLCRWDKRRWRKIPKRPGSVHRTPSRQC
Method in brief: as §1

[1] = compound nos. 1-454, M4-CHO cells, calcium mobilization
[2] = compound nos. 1-454, M1-CHO cells, calcium mobilization

Structure (SMILES) | Emax (M4 muscarinic receptor; compound nos. 1-454) | M4 Activity (M4 muscarinic receptor; [1]) | Emax (M1 muscarinic receptor; compound nos. 1-454) | M1 Activity (M1 muscarinic receptor; [2]) | M4 Activity (M4 muscarinic receptor; compound nos. 1-454) | M1 Activity (M1 muscarinic receptor; compound nos. 1-454) | Emax (M4 muscarinic receptor; compound nos. 455-509) | M4 Activity (M4 muscarinic receptor; compounds 455-509) | Emax (M1 muscarinic receptor; compound nos. 455-509) | M1 Activity (M1 muscarinic receptor; compounds 455-509)
CC(=O)N1CC2(CCN(CC3CCN(C(=O)O[C@@H]4CCOC4)CC3)CC2)c2cc(F)ccc21 [compound 14] | > 70% | +++ (activity was measured to be less than or equal to 0.1 μM) | 65 to 85% | +++ (activity was measured to be less than or equal to 0.7 μM) |  |  |  |  |  | 
CCOC(=O)N1CCC(N2CCC3(CC2)CN(C(=O)c2ccccc2C)c2ccc(F)cc23)CC1 [compound 53] | 55 to 70% | ++ (activity was measured to be between 0.1 μM and 4.0 μM) | < 65% | ++ (activity was measured to be between 0.7 μM and 3.0 μM) |  |  |  |  |  | 
COCCOC(=O)N1C2CCC1CC(N1CCC3(CC1)COc1ccc(F)cc13)C2 (stereo not shown) [compound 378] | 55 to 70% |  | 65 to 85% |  | + (activity was measured to be greater than or equal to 4.0 μM) | ++ (activity was measured to be between 0.7 μM and 3.0 μM) |  |  |  | 
CCc1nsc(N2CCC(N3CCC4(CCN(C(C)=O)c5ccccc54)CC3)CC2)n1 [compound 489] |  |  |  |  |  |  | 25 to 100% | ++ (activity was measured to be between 2.0 μM and 5.0 μM) | > 100% | +++ (activity was measured to be less than or equal to 2.0 μM)
CN(C)C(=O)N1CC2(CCN(C3CCN(c4cnc(Br)cn4)CC3)CC2)c2ccccc21 [compound 509] |  |  |  |  |  |  | 25 to 100% | ++ (activity was measured to be between 2.0 μM and 5.0 μM) | > 100% | ++ (activity was measured to be between 2.0 μM and 5.0 μM)
CCCOC(=O)N1C2CCC1CC(N1CCC3(CC1)CN(C(=O)N(C)C)c1ccc(F)cc13)C2 (stereo not shown) [compound 360] | < 55% | + (activity was measured to be greater than or equal to 4.0 μM) | 65 to 85% | ++ (activity was measured to be between 0.7 μM and 3.0 μM) |  |  |  |  |  | 
CC(=O)N1CC2(CCN(C3CCCC(C(F)(F)F)C3)CC2)c2cc(F)ccc21 (stereo not shown) [compound 425] | < 55% |  | < 65% |  | + (activity was measured to be greater than or equal to 4.0 μM) | + (activity was measured to be greater than or equal to 3.0 μM) |  |  |  | 
CCOC(=O)N1CCC(N2CCC3(CC2)CN(C(C)=O)c2ccc(-c4ccoc4)cc23)CC1 [compound 128] | < 55% | ++ (activity was measured to be between 0.1 μM and 4.0 μM) | < 65% | +++ (activity was measured to be less than or equal to 0.7 μM) |  |  |  |  |  | 
COc1ccccc1N1CCC(N2CCC3(CC2)CN(C(=O)N(C)C)c2ccc(F)cc23)CC1 [compound 440] | 55 to 70% |  | 65 to 85% |  | ++ (activity was measured to be between 0.1 μM and 4.0 μM) | ++ (activity was measured to be between 0.7 μM and 3.0 μM) |  |  |  | 
CC(=O)N1CC2(CCN(CC3CCN(C(=O)OC(C)C)CC3)CC2)c2cc(F)ccc21 [compound 202] | < 55% | + (activity was measured to be greater than or equal to 4.0 μM) | 65 to 85% | ++ (activity was measured to be between 0.7 μM and 3.0 μM) |  |  |  |  |  | 
COc1cccc(N2CCC(N3CCC4(CC3)CN(C(=O)N(C)C)c3ccc(F)cc34)CC2)c1 [compound 441] | 55 to 70% |  | 65 to 85% |  | +++ (activity was measured to be less than or equal to 0.1 μM) | ++ (activity was measured to be between 0.7 μM and 3.0 μM) |  |  |  | 
Clc1ccc2c(c1)C1(CCO2)CCN(CC2CCOCC2)CC1 [compound 288] | < 55% | + (activity was measured to be greater than or equal to 4.0 μM) | < 65% | + (activity was measured to be greater than or equal to 3.0 μM) |  |  |  |  |  | 
CN(C)C(=O)N1CC2(CCN(C3CCN(c4cnc5ccccc5n4)CC3)CC2)c2cc(F)ccc21 [compound 460] |  |  |  |  |  |  | 25 to 100% | ++ (activity was measured to be between 2.0 μM and 5.0 μM) | > 100% | +++ (activity was measured to be less than or equal to 2.0 μM)
CCc1nsc(N2CCC(N3CCC4(CC3)CN(C(=O)N(C)C)c3ccccc34)CC2)n1 [compound 476] |  |  |  |  |  |  | > 100% | +++ (activity was measured to be less than or equal to 2.0 μM) | > 100% | +++ (activity was measured to be less than or equal to 2.0 μM)
Clc1ccc2c(c1)C1(CCO2)CCN(C[C@@H]2C[C@H]3C=C[C@H]2C3)CC1 [compound 164] | > 70% | + (activity was measured to be greater than or equal to 4.0 μM) | > 85% | ++ (activity was measured to be between 0.7 μM and 3.0 μM) |  |  |  |  |  | 
CCOC(=O)N1CCC(N2CCC3(CC2)CN(C(=O)c2cccc(F)c2)c2ccc(F)cc23)CC1 [compound 410] | < 55% |  | < 65% |  | ++ (activity was measured to be between 0.1 μM and 4.0 μM) | ++ (activity was measured to be between 0.7 μM and 3.0 μM) |  |  |  | 
CC(=O)NC1CC2(CCN(C3CC4CCC3C4)CC2)c2ccccc21 (stereo not shown) [compound 291] | 55 to 70% | + (activity was measured to be greater than or equal to 4.0 μM) | 65 to 85% | ++ (activity was measured to be between 0.7 μM and 3.0 μM) |  |  |  |  |  | 
CCOC(=O)N1C2CCC1CC(N1CCC3(CC1)COc1ccc(Cl)cc13)C2 (stereo not shown) [compound 99] | < 55% | + (activity was measured to be greater than or equal to 4.0 μM) | < 65% | +++ (activity was measured to be less than or equal to 0.7 μM) |  |  |  |  |  | 
Clc1ccc2c(c1)C1(CCO2)CCN([C@@H]2C[C@@H]3CC[C@@H]2C3)CC1 [compound 369] | > 70% | ++ (activity was measured to be between 0.1 μM and 4.0 μM) | > 85% | +++ (activity was measured to be less than or equal to 0.7 μM) |  |  |  |  |  | 
Cc1ccc2c(c1)C1(CCN(C3CC4CCC3C4)CC1)CN2S(=O)(=O)c1ccccc1 (stereo not shown) [compound 354] | 55 to 70% | + (activity was measured to be greater than or equal to 4.0 μM) | 65 to 85% | + (activity was measured to be greater than or equal to 3.0 μM) |  |  |  |  |  | 
CC(=O)N[C@@H]1CC2(CCN([C@@H]3C[C@@H]4CC[C@@H]3C4)CC2)c2ccccc21 [compound 323] | 55 to 70% | + (activity was measured to be greater than or equal to 4.0 μM) | 65 to 85% | ++ (activity was measured to be between 0.7 μM and 3.0 μM) |  |  |  |  |  | 
CCOC(=O)N1C2CCC1CC(N1CCC3(CC1)CN(C(=O)N(C)C)c1ccc(F)cc13)C2 (stereo not shown) [compound 362] | < 55% | + (activity was measured to be greater than or equal to 4.0 μM) | 65 to 85% | ++ (activity was measured to be between 0.7 μM and 3.0 μM) |  |  |  |  |  | 
CCOC(=O)N1CCC(CN2CCC3(CC2)CN(C(C)=O)c2ccc(C)cc23)CC1 [compound 46] | 55 to 70% | +++ (activity was measured to be less than or equal to 0.1 μM) | > 85% | +++ (activity was measured to be less than or equal to 0.7 μM) |  |  |  |  |  | 
CCOC(=O)N1CCC(N2CCC3(CC2)CN(C(=O)N(CC)CC)c2ccc(F)cc23)CC1 [compound 223] | < 55% | + (activity was measured to be greater than or equal to 4.0 μM) | < 65% | + (activity was measured to be greater than or equal to 3.0 μM) |  |  |  |  |  | 
CCCOC(=O)N1CCC(CN2CCC3(CC2)C[C@H](NC(C)=O)c2ccccc23)CC1 [compound 36] | > 70% | ++ (activity was measured to be between 0.1 μM and 4.0 μM) | 65 to 85% | +++ (activity was measured to be less than or equal to 0.7 μM) |  |  |  |  |  | 
